One data set in a line: in vitro. Conditions: human, Caco-2.
The target of the next data set is HIV-1 RNase H. Particulars: read-out: HIV-1 RNase H IC50; in vitro; ref Budihas et al., 2005; cited from earlier work.
For a further data set, the target named is human RNase H. Conditions: read-out: human RNase H IC50; ref Budihas et al., 2005; cited from earlier work.
Data set [1] deals with bacterial (Escherichia coli) RNase H. Particulars: read-out: bacterial (Escherichia coli) RNase H IC50; ref Budihas et al., 2005; cited from earlier work.

Take `COCCc1ccc(OCC(O)CNC(C)C)cc1` (stereo not shown) [metoprolol]: in the data set “in vitro”, the Papp stood at 16.3 ×10⁻⁶ cm/s and the recovery is above 93%.
In the data set “in vitro”, `CC(C)(C)NCC(O)COc1cccc2c1CC(O)C(O)C2` (stereo not shown) [nadolol] had a Papp of 0.11 ×10⁻⁶ cm/s and a recovery above 93%.
On to `CC(C)c1ccc(O)c(=O)c(O)c1` [β-thujaplicinol], for which the IC50 is around 0.2 µM on HIV-1 RNase H, 5.7 µM on human RNase H and 50 µM in data set [1].

These data come from article PMC7441570 (Chemical biology & drug design, 2019).
